Active and inactive are the calls of the source.
Legend:
[1] = restored growth of temperature-sensitive Burl-1 yeast – whole organism, S. cerevisiae, Burl-1 ts mutant, luminescence, counter-screen for SUMOylation pathway inhibitor project, dose response (AID 463199); type: functional
[2] = molecular target: T1, Mannose-6-phosphate isomerase (Homo sapiens, UniProt P34949); test: phosphomannose isomerase inhibition – biochemical, fluorescence intensity, confirmation (AID 1535)
T1 sequence (P34949 whole entry): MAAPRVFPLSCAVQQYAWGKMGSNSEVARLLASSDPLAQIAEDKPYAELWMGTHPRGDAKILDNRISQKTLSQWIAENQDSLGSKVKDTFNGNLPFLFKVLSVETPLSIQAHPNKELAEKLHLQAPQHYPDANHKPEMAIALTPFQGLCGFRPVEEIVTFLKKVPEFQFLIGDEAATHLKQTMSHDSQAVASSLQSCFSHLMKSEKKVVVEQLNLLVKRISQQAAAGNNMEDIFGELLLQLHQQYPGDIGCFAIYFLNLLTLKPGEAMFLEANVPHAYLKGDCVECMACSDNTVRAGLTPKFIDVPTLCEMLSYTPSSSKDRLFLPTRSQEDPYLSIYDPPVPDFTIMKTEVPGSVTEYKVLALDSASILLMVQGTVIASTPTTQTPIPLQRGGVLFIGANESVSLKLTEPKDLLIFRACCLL

[3] = molecular target: Phosphoethanolamine/phosphocholine phosphatase (Homo sapiens, UniProt Q8TCT1); test: SAR assay for compounds that inhibit PHOSPHO1. [Related pubchem assays (depositor defined):AID1545, AID1565, AID1574]
Chain of Phosphoethanolamine/phosphocholine phosphatase (Q8TCT1 whole entry): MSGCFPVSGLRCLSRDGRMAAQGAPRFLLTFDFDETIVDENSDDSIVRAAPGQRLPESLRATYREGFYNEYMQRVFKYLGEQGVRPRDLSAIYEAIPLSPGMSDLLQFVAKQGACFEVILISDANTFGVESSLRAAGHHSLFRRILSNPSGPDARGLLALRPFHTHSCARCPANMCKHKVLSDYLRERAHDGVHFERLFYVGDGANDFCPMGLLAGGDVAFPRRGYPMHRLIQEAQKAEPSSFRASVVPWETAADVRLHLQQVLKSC

[4] = molecular target: Phosphomannomutase 2 (Homo sapiens, UniProt O15305); test: Counter screen SAR assay for PMM2 inhibitors via a fluorescence intensity assay. [Related pubchem assays (depositor defined):AID1545, AID1574]
Chain of Phosphomannomutase 2 (O15305 whole entry): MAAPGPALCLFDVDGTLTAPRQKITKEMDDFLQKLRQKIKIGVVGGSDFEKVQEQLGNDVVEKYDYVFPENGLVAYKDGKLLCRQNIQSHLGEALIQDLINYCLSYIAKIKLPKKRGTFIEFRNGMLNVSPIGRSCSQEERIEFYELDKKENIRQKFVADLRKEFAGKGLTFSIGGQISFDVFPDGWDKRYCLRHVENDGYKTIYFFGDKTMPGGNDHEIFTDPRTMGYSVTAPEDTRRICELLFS

[5] = molecular target: T2, Streptokinase A (Streptococcus pyogenes serotype M1, UniProt P10520); test: viability-normalized secreted streptokinase activity reduction – plasminogen activation absorbance, OD405, dose response (AID 1914); type: functional, Streptococcus pyogenes M1 GAS;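 note: secreted streptokinase activity via plasminogen activation per viability signal from cell pellet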
T2 sequence (P10520 whole entry): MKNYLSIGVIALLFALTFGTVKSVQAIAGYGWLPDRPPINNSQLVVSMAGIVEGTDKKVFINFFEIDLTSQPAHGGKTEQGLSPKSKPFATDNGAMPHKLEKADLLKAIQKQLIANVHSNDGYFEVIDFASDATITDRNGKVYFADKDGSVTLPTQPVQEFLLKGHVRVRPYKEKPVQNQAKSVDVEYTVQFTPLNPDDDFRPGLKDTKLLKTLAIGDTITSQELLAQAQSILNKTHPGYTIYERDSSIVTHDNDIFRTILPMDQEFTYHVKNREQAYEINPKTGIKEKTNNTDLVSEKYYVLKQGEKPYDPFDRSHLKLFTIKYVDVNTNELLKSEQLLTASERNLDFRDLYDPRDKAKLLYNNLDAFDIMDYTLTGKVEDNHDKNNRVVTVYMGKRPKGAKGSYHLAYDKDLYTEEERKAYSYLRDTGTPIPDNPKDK

[6] = system: HEK293; test: NOD2 signaling inhibitors in MDP-stimulated cells, cell-based, uHTS, luminescence (AID 2001); type: functional; conditions: Homo sapiens
[7] = molecular target: Nucleotide-binding oligomerization domain-containing protein 2 (Homo sapiens, UniProt Q9HC29); test: inhibition of NOD2-driven NF-kB reporter – cell-based, luminescence, uHTS, HEK293 (AID 1566); type: functional
Chain of Nucleotide-binding oligomerization domain-containing protein 2 (Q9HC29 whole entry, the tested form may be a part): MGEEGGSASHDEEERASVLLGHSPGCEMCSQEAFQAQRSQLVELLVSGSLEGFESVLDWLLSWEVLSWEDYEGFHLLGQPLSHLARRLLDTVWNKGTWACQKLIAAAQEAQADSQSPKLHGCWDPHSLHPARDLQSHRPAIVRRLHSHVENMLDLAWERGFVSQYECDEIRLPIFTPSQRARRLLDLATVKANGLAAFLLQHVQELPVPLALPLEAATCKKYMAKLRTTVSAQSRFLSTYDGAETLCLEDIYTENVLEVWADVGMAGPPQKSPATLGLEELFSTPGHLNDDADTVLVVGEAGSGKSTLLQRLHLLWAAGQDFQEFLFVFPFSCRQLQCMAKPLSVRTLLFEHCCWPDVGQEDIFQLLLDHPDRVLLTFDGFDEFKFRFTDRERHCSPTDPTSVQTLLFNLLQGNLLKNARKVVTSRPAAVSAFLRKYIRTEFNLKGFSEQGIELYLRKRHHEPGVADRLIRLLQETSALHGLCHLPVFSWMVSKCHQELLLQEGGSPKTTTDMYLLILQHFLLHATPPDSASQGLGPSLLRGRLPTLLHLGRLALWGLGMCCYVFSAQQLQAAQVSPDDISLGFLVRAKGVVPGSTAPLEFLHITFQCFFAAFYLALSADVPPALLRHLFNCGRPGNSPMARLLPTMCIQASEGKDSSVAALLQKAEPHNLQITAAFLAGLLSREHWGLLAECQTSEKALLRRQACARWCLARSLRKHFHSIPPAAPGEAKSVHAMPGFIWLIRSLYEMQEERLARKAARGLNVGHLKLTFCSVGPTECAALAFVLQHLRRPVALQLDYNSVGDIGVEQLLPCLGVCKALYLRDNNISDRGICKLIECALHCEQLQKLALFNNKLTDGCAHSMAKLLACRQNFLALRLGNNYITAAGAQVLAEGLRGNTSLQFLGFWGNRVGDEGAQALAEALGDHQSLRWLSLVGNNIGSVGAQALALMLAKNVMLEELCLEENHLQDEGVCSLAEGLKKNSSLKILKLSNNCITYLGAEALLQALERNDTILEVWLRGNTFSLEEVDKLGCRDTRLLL

[8] = system: HEK293; test: cells; type: functional, cell-based; conditions: Homo sapiens
[9] = system: Streptococcus sp. 'group A'; test: Streptococcus pyogenes SK(-)GAS viability under kanamycin – luminescence, BacTiterGlo, confirmation, counter-screen for streptokinase expression inhibitor project, dose response (AID 1900); type: functional, organism-based
[10] = system: HEK293; test: inhibition of NOD1-driven NF-kB reporter – cell-based, luminescence, uHTS, primary screen (AID 1578); type: functional; conditions: Homo sapiens
[11] = system: HEK293; test: cells; type: functional, cell-based; conditions: Homo sapiens; remark: listed apart in the source
[12] = system: HEK293; test: cells; type: functional, cell-based; conditions: Homo sapiens; remark: listed apart in the source
[13] = system: Streptococcus; test: GAS UMAA2166 growth inhibition – luminescence, BacTiterGlo, counter-screen for streptokinase expression inhibitor project, dose response (AID 1915); type: functional, organism-based;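 note: potency for reduction of bacterial viability or growth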
[14] = molecular target: Cytochrome P450 3A4 (Homo sapiens, UniProt P08684);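 note: CYP3A4 tested as one member of a cytochrome P450 panel screen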
Chain of Cytochrome P450 3A4 (P08684 whole entry): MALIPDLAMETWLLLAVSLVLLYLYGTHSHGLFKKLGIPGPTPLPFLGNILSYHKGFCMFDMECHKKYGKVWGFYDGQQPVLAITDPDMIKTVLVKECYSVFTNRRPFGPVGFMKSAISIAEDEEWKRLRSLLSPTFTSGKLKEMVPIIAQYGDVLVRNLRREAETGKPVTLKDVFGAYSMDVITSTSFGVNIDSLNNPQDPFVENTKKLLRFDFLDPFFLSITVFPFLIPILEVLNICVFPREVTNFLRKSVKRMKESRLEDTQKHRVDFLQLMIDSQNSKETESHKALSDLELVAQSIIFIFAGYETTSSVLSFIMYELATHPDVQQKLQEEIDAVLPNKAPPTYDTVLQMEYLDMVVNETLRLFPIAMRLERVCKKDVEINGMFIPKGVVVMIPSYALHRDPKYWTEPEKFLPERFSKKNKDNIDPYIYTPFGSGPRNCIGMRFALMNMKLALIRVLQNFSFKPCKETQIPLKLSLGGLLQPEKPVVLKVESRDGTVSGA

[15] = molecular target: Cytochrome P450 2C19 (Homo sapiens, UniProt P33261); test: Cytochrome panel assay with activity outcomes. Panel member name: p450-cyp2c19 Compounds with AC50 equal or less than 10 uM are considered active; type: functional; conditions: read-out: AC50
Chain of Cytochrome P450 2C19 (P33261 whole entry): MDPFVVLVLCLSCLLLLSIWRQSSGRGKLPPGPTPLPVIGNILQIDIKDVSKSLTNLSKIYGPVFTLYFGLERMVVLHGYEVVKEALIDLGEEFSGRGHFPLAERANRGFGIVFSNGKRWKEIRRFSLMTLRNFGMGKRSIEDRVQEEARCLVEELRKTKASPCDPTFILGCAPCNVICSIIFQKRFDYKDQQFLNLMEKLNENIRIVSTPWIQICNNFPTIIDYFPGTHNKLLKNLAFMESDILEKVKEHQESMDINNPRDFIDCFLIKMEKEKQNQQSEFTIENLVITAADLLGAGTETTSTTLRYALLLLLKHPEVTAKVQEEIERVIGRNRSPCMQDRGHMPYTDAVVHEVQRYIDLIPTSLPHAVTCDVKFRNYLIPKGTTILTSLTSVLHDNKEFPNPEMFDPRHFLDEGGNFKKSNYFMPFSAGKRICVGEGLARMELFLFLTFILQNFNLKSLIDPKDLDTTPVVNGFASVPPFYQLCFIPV

[16] = molecular target: Cytochrome P450 2D6 (Homo sapiens, UniProt P10635);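 note: CYP2D6 member of a cytochrome P450 panel assay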
Chain of Cytochrome P450 2D6 (P10635 whole entry): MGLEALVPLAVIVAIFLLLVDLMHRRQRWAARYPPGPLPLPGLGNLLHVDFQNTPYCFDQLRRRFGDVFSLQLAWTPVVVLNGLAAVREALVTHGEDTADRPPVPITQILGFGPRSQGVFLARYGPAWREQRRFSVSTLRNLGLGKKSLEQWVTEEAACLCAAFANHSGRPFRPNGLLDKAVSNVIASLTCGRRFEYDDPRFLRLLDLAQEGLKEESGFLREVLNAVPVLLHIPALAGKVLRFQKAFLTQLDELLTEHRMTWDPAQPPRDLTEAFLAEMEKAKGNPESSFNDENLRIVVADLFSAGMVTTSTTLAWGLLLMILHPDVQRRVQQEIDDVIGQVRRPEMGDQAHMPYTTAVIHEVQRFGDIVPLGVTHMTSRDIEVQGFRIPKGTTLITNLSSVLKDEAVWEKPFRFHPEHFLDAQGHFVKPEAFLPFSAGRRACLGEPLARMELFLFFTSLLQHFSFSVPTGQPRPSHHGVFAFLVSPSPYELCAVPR

[17] = molecular target: DNA repair and recombination protein RAD54-like (Homo sapiens, UniProt Q92698); test: RAD54 Holliday junction migration blockers – biochemical, fluorescence, cherry-picked samples, dose series, confirmation (AID 651657); type: functional
Chain of DNA repair and recombination protein RAD54-like (Q92698 whole entry): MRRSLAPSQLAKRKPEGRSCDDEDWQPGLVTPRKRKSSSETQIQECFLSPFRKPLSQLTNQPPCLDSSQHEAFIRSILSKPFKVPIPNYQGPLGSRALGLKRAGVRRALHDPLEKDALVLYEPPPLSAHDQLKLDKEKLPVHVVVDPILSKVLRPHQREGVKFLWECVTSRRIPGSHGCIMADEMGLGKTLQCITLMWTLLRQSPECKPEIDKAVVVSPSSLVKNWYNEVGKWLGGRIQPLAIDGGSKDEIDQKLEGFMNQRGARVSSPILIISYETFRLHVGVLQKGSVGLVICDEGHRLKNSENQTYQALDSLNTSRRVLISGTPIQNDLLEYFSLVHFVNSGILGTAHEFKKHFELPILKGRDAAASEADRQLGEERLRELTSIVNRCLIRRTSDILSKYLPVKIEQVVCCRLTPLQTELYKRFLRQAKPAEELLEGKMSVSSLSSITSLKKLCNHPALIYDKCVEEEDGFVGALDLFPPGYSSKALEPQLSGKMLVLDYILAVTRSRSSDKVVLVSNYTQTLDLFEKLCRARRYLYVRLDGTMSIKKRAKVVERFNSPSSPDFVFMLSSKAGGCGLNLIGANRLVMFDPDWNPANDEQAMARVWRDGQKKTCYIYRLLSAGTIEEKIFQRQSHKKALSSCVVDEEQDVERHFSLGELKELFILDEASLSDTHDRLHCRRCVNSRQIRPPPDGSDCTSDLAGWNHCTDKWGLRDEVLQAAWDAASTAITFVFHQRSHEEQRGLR

[18] = molecular target: T3, Aryl hydrocarbon receptor (Homo sapiens, UniProt P35869); test: Luminescence-based cell-based high throughput dose response assay for activators of the Aryl Hydrocarbon Receptor (AHR). [Related pubchem assays: 2796 (Primary screen (AHR activators in singlicate)), 2845 (Confirmation screen (AHR activators in triplicate)), 434939 (Counterscreen (PXR activators in triplicate)), 2804 (Summary (AHR activators))]; type: ADME
T3 sequence (P35869 whole entry): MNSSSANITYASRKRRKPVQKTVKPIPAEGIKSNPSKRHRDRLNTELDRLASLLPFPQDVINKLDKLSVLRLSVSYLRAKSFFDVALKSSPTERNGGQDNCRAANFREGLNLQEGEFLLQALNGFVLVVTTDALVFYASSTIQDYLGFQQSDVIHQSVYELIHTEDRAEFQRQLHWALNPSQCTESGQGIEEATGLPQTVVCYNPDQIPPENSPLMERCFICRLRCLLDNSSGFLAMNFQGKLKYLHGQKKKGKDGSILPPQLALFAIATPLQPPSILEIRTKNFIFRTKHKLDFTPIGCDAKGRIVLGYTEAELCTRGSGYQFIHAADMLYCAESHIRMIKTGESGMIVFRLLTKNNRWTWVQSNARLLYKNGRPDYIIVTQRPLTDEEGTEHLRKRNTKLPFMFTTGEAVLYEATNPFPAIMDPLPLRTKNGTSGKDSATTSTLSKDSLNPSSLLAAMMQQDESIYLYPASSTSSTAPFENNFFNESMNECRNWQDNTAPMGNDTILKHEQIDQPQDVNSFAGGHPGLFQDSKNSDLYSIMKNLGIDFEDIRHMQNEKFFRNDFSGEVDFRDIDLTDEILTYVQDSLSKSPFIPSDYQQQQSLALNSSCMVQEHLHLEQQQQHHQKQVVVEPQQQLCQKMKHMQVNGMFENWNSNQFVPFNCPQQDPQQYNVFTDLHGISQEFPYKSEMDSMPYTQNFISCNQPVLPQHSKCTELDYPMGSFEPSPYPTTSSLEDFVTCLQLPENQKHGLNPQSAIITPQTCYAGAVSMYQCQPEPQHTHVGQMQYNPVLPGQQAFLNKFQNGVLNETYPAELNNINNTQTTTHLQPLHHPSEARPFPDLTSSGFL

[19] = molecular target: T4, CAAX prenyl protease 2 (Homo sapiens, UniProt Q9Y256); test: inhibition of Ras-converting CAAX protease Rce1 – biochemical, yeast membranes, quenched-peptide fluorescence, cherry-pick, dose response (AID 588849)
T4 sequence (Q9Y256 whole entry): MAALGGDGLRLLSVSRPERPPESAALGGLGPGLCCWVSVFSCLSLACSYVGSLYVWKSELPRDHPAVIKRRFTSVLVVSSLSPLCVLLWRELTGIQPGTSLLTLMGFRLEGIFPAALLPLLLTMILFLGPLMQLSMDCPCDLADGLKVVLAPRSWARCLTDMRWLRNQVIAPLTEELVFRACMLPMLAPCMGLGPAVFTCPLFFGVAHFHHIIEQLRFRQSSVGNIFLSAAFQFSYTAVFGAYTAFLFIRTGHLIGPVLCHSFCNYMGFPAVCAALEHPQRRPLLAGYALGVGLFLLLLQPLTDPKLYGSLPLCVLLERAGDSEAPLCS

[20] = molecular target: T5, CAAX prenyl protease 2 (Saccharomyces cerevisiae S288c, UniProt Q03530); type: biochemical
T5 sequence (Q03530 whole entry): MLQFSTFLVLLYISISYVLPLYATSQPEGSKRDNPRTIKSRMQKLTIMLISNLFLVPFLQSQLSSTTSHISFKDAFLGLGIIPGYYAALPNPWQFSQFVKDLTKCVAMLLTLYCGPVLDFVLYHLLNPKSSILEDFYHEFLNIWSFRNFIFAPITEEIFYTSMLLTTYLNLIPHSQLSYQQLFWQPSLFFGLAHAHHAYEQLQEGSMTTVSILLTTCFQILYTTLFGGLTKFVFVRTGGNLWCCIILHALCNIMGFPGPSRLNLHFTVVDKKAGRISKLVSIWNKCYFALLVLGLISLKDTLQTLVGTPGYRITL

[21] = molecular target: CAAX prenyl protease 1 (Saccharomyces cerevisiae S288c, UniProt P47154); test: yeast CAAX protease Ste24 inhibition – biochemical, S. cerevisiae, plate reader, cherry-pick, dose response (AID 488815)
Chain of CAAX prenyl protease 1 (P47154 whole entry): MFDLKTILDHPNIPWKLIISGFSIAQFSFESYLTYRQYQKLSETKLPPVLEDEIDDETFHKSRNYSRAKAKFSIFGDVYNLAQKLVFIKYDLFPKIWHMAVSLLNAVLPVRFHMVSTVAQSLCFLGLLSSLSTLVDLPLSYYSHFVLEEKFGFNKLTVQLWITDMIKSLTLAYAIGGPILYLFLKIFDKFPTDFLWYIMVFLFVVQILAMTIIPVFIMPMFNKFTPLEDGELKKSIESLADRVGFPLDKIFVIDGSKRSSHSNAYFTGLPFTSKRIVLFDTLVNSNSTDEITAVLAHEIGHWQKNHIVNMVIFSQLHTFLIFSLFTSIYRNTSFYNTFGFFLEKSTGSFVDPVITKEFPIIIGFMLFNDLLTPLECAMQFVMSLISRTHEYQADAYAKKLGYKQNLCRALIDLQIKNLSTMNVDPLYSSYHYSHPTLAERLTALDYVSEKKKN

[22] = NIH-3T3 fibroblast cytotoxicity, dose response, cytotoxicity control, cell-based, fluorescence, Alamar Blue, secondary assay (AID 2327); type: functional;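 note: NIH-3T3 mouse fibroblasts cultured with fluconazole at 8 µg/mL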
[23] = molecular target: T6, Protein skinhead-1 (Caenorhabditis elegans, UniProt P34707); type: functional
T6 sequence (P34707 whole entry): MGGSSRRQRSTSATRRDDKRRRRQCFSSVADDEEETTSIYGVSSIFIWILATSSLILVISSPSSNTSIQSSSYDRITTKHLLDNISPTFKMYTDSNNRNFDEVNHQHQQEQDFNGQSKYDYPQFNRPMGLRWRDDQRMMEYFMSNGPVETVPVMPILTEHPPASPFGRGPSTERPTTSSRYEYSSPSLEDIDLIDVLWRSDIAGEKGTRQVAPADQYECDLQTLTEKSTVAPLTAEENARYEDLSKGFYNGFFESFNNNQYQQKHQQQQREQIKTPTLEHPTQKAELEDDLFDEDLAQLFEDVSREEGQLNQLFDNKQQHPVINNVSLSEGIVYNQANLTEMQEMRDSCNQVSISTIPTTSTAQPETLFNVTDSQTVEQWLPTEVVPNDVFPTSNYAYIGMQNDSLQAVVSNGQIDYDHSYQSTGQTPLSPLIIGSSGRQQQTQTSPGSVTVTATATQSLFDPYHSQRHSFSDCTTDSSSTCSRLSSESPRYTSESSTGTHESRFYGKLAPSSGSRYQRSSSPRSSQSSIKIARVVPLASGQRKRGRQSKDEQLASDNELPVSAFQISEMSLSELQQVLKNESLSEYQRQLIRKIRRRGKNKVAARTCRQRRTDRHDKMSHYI

[24] = fluconazole-exposed Candida albicans growth modulators – fluorescence, retest, confirmation (AID 2467); type: functional, cell-based
[25] = molecular target: T7, Serine/threonine-protein phosphatase (Candida dubliniensis (strain CD36 / CBS 7987 / NCPF 3949 / NRRLY-17841) (Yeast), UniProt B9W6M3); test: blockers of CaCl2-induced CDRE-lacZ signaling – S. cerevisiae, luminescence, secondary, dose response (AID 2388); type: functional, cell-based;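 note: yeast reporter cells carrying a calcineurin-responsive lacZ construct stimulated with calcium chloride; luminescent beta-galactosidase reporter signal in whole cells rather than isolated phosphatase activity; potency for inhibition where a drop in reporter signal means calcineurin blockade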
T7 sequence (B9W6M3 whole entry): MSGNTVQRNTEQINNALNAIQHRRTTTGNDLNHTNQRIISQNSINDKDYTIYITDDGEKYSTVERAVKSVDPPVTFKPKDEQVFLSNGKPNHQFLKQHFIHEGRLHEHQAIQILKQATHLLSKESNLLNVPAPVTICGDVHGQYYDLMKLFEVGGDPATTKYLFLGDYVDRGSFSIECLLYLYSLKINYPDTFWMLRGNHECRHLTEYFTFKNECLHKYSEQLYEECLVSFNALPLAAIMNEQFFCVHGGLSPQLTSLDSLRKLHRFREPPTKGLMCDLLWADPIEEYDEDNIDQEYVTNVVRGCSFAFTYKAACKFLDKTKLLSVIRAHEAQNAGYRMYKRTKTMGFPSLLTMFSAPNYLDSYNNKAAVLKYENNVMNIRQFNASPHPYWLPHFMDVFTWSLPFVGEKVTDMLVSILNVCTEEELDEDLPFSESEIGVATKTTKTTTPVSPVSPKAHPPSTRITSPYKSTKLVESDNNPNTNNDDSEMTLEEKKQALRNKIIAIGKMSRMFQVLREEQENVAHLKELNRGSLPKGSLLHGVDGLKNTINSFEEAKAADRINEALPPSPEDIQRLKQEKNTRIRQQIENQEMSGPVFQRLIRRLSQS

[26] = molecular target: ATP-dependent molecular chaperone HSP82 (Candida albicans (strain WO-1) (Yeast), UniProt C4YTQ8); test: steroid-induced GRE reporter decrease in yeast – S. cerevisiae, luminescence, Hsp90 inhibitor project, dose response (AID 2400); type: functional, cell-based;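 note: beta-galactosidase luminescence from glucocorticoid response element reporter as proxy for Hsp90 function; inhibitor potency where signal loss means Hsp90 inhibition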
Chain of ATP-dependent molecular chaperone HSP82 (C4YTQ8 whole entry): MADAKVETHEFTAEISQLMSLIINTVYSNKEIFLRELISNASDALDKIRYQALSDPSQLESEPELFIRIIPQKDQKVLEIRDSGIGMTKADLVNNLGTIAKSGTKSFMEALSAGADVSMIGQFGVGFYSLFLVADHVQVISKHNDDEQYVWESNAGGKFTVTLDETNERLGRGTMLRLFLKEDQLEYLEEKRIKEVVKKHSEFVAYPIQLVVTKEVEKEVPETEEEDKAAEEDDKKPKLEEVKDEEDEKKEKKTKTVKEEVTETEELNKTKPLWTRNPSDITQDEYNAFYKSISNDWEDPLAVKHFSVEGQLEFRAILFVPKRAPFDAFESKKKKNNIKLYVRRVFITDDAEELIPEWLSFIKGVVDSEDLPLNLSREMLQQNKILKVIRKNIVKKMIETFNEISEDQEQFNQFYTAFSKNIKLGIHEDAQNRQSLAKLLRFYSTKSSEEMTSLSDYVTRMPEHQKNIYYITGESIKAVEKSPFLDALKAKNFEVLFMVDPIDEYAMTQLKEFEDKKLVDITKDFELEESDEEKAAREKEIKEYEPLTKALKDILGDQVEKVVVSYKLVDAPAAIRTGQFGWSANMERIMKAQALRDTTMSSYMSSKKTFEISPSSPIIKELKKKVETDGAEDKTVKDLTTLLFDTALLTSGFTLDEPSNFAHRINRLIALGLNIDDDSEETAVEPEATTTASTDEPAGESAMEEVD

[27] = molecular target: T7, Serine/threonine-protein phosphatase; test: Fluorescence Cell-Based Secondary Assay to Identify Inhibitors of Calcineurin. [Related pubchem assays (depositor defined):AID1979, AID2007]; type: functional

SMILES: OCCc1c[nH]c2cc(F)ccc12
- AC50 [1]: 73.3 µM (active)

SMILES: CCN(CC)CCOC(=O)c1ccc(-n2sc3ccccc3c2=O)cc1
- IC50 [2]: 24.1 µM (active)
- IC50 [3]: 0.755 µM (active)
- IC50 [4]: 26.9 µM (active)

SMILES: CCCCCCc1cc2cc(C(=O)OCC)c(=O)oc2cc1O
- EC50 [5]: 12.8 µM (active)
- IC50 [6]: 6.52 µM (inactive)
- EC50 [7]: 12.6 µM (active)
- IC50 [8]: 15.8 µM (active)
- EC50 [9]: 10.8 µM (active)
- EC50 [10]: 5.81 µM (active)
- IC50 [11]: > 20 µM (inactive)
- IC50 [12]: 7.71 µM (active)
- EC50 [13]: > 150 µM (not active)

SMILES: CCc1ccc(C(CC(=O)c2ccc(Cl)cc2)C(=O)O)cc1 (stereo not drawn)
- AC50 [14]: inconclusive
- AC50 [15]: 0.00562 µM (inconclusive)
- AC50 [16]: inconclusive

SMILES: CN1CCN(CCCNC(=O)c2cc3c(-c4ccc(Cl)cc4)nn(C)c3s2)CC1
- AC50 [17]: 33.6 µM (active)
- EC50 [18]: 0.483 µM (active)
- AC50 [19]: 15.8 µM (active)
- AC50 [20]: 7.05 µM (active)
- AC50 [21]: 6.07 µM (active)

SMILES: O=C(Nc1sc2c(c1C(=O)c1ccc(Cl)cc1)CCCC2)c1cccnc1
- EC50 [22]: > 160 µM (inactive)
- IC50 [23]: > 100 µM (inactive)
- EC50 [24]: 0.18 µM (active)
- AC50 [19]: 24.3 µM (active)
- EC50 [25]: > 180 µM (inactive)
- EC50 [26]: 28.2 µM (active)
- EC50 [27]: 27.6 µM (inconclusive)

From ChEMBL document CHEMBL1201862, “PubChem BioAssay data set” (2004)
